From patent US9694003B2, “Formulations and methods for treating high intraocular pressure” (Bridge Pharma, Inc., priority 2015, dated 2017)

Columns and labels:
Pseudomonas aeruginosa = experiment: Preservation challenge test (USP 51), P. aeruginosa; assay type: cell-based; details: saline formulation, pH 5.0
Description: (§1) METHOD: The standardized Preservative Challenge Test (U.S. Pharmacopeia 51 Antimicrobial Effectiveness Testing) have been used for tests of self-preservation by norketotifen in concentrations to be used for patients suffering from allergic conjunctivitis and xerophthalmia. USP (51) is a standard test used to determine the antimicrobial effectiveness of test articles and ophthalmic formulations. The present tests were using 150 ml of each formulation and covered the mandatory five organisms: Escherichia coli (fermentative G−), Pseudomonas aeruginosa (non-fermentative G−), Staphylococcus aureus (G+), Aspergillus brasiliensis (mold), and Candida albicans (yeast). The number of inoculated cells was 0.5×10^5 per mL and the incubation temperature was 25° C. for all inoculations. Plating for measuring of recoveries were performed weekly over 4 weeks. The norketotifen formulations were defined as being self-preserving only if the numbers of cell colonies remained constant (fungi) and were declining (bacteria) according to the strictly standardized USP 51 protocol. […] All solutions used in the antimicrobial studies were devoid of added preservatives.
(§2) USP Criteria for Tested Microorganisms (Category 1)
(§3) Bacteria: Not less than a 3.0 logarithmic reduction from the initial count to the count at 14 days, and no increase from the counts at 14 days to the counts at 28 days.

[1] = system: Escherichia coli, Pseudomonas aeruginosa, Staphylococcus aureus, Aspergillus brasiliensis, Candida albicans; experiment: Preservative Challenge Test (USP 51 Antimicrobial Effectiveness Testing), all five organisms; assay type: cell-based; details: ocular formulation without preservatives, concentrations useful for decreasing IOP
Description: METHOD: The standardized Preservative Challenge Test (U.S. Pharmacopeia 51 Antimicrobial Effectiveness Testing) have been used for tests of self-preservation by norketotifen in concentrations to be used for patients suffering from allergic conjunctivitis and xerophthalmia. USP (51) is a standard test used to determine the antimicrobial effectiveness of test articles and ophthalmic formulations. The present tests were using 150 ml of each formulation and covered the mandatory five organisms: Escherichia coli (fermentative G−), Pseudomonas aeruginosa (non-fermentative G−), Staphylococcus aureus (G+), Aspergillus brasiliensis (mold), and Candida albicans (yeast). The number of inoculated cells was 0.5×10^5 per mL and the incubation temperature was 25° C. for all inoculations. Plating for measuring of recoveries were performed weekly over 4 weeks. The norketotifen formulations were defined as being self-preserving only if the numbers of cell colonies remained constant (fungi) and were declining (bacteria) according to the strictly standardized USP 51 protocol. Tests were performed at pH 4.0, pH 4.5, pH 5.0 and pH 6.0 and the test articles were dissolved in BSA/water (BSA=bovine serum albumin) containing at least 0.01 percent norketotifen (calculated as free base). […]
(§4) Yeast and Molds (Fungi): No increase from the initial calculated count at 14 or 28 days.

Candida albicans = experiment: Preservation challenge test (USP 51), C. albicans; assay type: cell-based; details: saline formulation, pH 5.0
Description: as §1, §2, §4

Aspergillus brasiliensis = experiment: Preservation challenge test (USP 51), A. brasiliensis; assay type: cell-based; details: saline formulation, pH 5.0
Description: as §1, §2, §4

Staphylococcus aureus = experiment: Preservation challenge test (USP 51), S. aureus; assay type: cell-based; details: saline formulation, pH 5.0
Description: as §1, §2, §3

Escherichia coli = experiment: Preservation challenge test (USP 51), E. coli; assay type: cell-based; details: saline formulation, pH 5.0
Description: as §1, §2, §3

rabbits = experiment: Ocular irritation/toxicity study, repeated daily ocular doses; assay type: in vivo; details: repeated daily doses for 6 weeks, highest concentration tested
Description: (§5) Fifty-two rabbits (26F+26M) were assigned to four groups and were administered repeated daily doses of norketotifen HF solutions by the ocular route, 0.00, 0.0345, 0.0690 and 0.138 wt % for 6 weeks. […] In addition to regular toxicology parameters, ophthalmic parameters and ocular irritation scores were assessed. Blood samples were collected at predetermined time intervals. Plasma sample were analyzed using a validated LCMS-MS method. Plasma pharmacokinetics was calculated.

[2] = system: intraocular pressure in the eyes of rabbits; experiment: Intraocular pressure during repeated daily norketotifen eye-drops; assay type: in vivo; details: 6 rabbits
Description: as §5
In the previously described Ocular Irritation/Toxicity Study (Example 7), intraocular pressure was measured in the eyes of one group of rabbits (3M+3F), before, during and after repeated daily ocular treatment with norketotifen eye-drops. […] The group tested for effects on IOP consisted of 12 eyes and the dose administered was 0.14 wt % and norketotifen was administered daily for 6 weeks, followed by a two-week recovery period without norketotifen administration. Day 42 was the last day of the treatment period and Day 56 was the last day of the recovery period.

[3] = Solubility of norketotifen HF in non-aqueous carriers; assay type: physicochemical
Text: The intraocular formulations contain a carrier, such as water which is the carrier for an aqueous solution. Non-aqueous carriers include polyethylene glycol (PEG) and/or propylene glycol (PG) can be used in ophthalmic compositions. […] Norketotifen can be dissolved in water in concentrations up to about 0.2 wt %. Exemplary non-aqueous solvents include polyethylene glycol (about 0.1% to about 90%) and propylene glycol (about 0.1% to about 90%).

cornea = details: topical application to the eye, usual clinical concentration; cited from earlier work
trabecular mesh = details: within 15 minutes of exposure; cited from earlier work
eye = details: cited from earlier work
macrophages = details: cited from earlier work

Molecule	P. aerugin CFU/ml (Pseudomonas aeruginosa; Day 0) [CFU/ml]	P. aerugin CFU/ml (Pseudomonas aeruginosa; Day 14)	P. aerugin Log Reduc (Pseudomonas aeruginosa; Day 14)	P. aerugin CFU/ml (Pseudomonas aeruginosa; Day 28)	P. aerugin Log Reduc (Pseudomonas aeruginosa; Day 28)	C. albic CFU/ml (Candida albicans; Day 0) [CFU/ml]	C. albic CFU/ml (Candida albicans; Day 14)	C. albic CFU/ml (Candida albicans; Day 28)	C. albic Log Reduc (Candida albicans; Day 28)	A. brasil CFU/ml (Aspergillus brasiliensis; Day 0) [CFU/ml]	A. brasil CFU/ml (Aspergillus brasiliensis; Day 14) [CFU/ml]	A. brasil Log Reduc (Aspergillus brasiliensis; Day 14)	A. brasil CFU/ml (Aspergillus brasiliensis; Day 28) [CFU/ml]	A. brasil Log Reduc (Aspergillus brasiliensis; Day 28)	S. aureus CFU/ml (Staphylococcus aureus; Day 0) [CFU/ml]	S. aureus CFU/ml (Staphylococcus aureus; Day 14)	S. aureus Log Reduc (Staphylococcus aureus; Day 14)	S. aureus CFU/ml (Staphylococcus aureus; Day 28)	S. aureus Log Reduc (Staphylococcus aureus; Day 28)	E. coli CFU/ml (Escherichia coli; Day 0) [CFU/ml]	also measured
CN1CCC(=C2c3ccccc3CC(=O)c3sccc32)CC1.O=C(O)/C=C/C(=O)O [KETO, RS-ketotifen hydrogen fumarate, reference compound]	3.1E+05	1.5E+4 CFU/ml	1.31	2.3E+05 CFU/ml	0.13	7.9E+05	3.0E+03 CFU/ml	1.1E+03 CFU/ml	0.25	3.6E+05	4.8E+05	None	2.0E+05	0.25	2.0E+06	3.3E+06 CFU/ml	None	3.6E+06 CFU/ml	None	1.5E+06	self-preservation test, conclusion [1]: not pass the self-preservation test; E. coli CFU/ml (Escherichia coli; Day 14): 2.5E+04 CFU/ml; E. coli Log Reduc (Escherichia coli; Day 14): 1.78; E. coli CFU/ml (Escherichia coli; Day 28): 2.6E+06 CFU/ml; E. coli Log Reduc (Escherichia coli; Day 28): None
O=C(O)C=CC(=O)O.O=C1Cc2ccccc2C(=C2CCNCC2)c2ccsc21 [norketotifen HF, RS-norketotifen hydrogen fumarate]	4.7E+05	<5.0+00 CFU/ml	>4.79	<5.0+00 CFU/ml	>4.97	6.0E+05	<5.0+00 CFU/ml	<5.0+00 CFU/ml	>5.08	7.0E+05	5.75E+02	3.09	3.10E+02	3.35	2.5E+05	<5.0+00 CFU/ml	>4.70	<5.0+00 CFU/ml	>4.70	8.5E+05	No-Observable-Adverse-Effect-Level (NOAEL) (rabbits): 0.138%; IOP (mm Hg; ± SD) ([2]; Day 1 (pretest), 12 eyes): 20.4 ± 2.9 mm Hg; IOP (mm Hg; ± SD) ([2]; Day 42 (treatment), 0.14 wt % eye-drops daily for 6 weeks, P = 0.0005 vs. Day 1): 16.5 ± 1.7 mm Hg; IOP (mm Hg; ± SD) ([2]; Day 56 (recovery, two weeks without dosing), P < 0.0001 vs. Day 42): 20.5 ± 1.6 mm Hg; C. albic Log Reduc (Candida albicans; Day 14): >5.08; solubility in polyethylene glycol (PEG 300) ([3]; PEG 300): about 0.15 percent w/w; solubility in propylene glycol ([3]; propylene glycol): up to 1.0 wt %; E. coli CFU/ml (Escherichia coli; Day 14): <5.0+00 CFU/ml; E. coli Log Reduc (Escherichia coli; Day 14): >5.23; E. coli CFU/ml (Escherichia coli; Day 28): <5.0+00 CFU/ml; E. coli Log Reduc (Escherichia coli; Day 28): >5.23
benzalkonium chloride [BAK]	–	–	–	–	–	–	–	–	–	–	–	–	–	–	–	–	–	–	–	–	concentration causing corneal neurotoxicity (cornea): 0.01%; concentration expressing toxicity that targets the trabecular mesh (trabecular mesh): 0.0001%; concentration inducing toxic ocular effects (eye): ≥ 0.0001%; concentration that stimulates macrophages, increases phagocytosis and releases cytokines (macrophages): 0.0001%
